Test results as given in ChEMBL document CHEMBL1909046, “DrugMatrix in vitro pharmacology data”.

Experiments:
[1] = molecular target: Sigma non-opioid intracellular receptor 1 (Homo sapiens, UniProt Q99720); test: DRUGMATRIX: Sigma1 radioligand binding (ligand: [3H] Haloperidol); format: cell membranes, Jurkat, Membrane; settings: Not Active = under 50% inhibition at 10 µM
D(4) dopamine receptor = molecular target: T1, D(4) dopamine receptor (Homo sapiens, UniProt P21917); test: DRUGMATRIX: Dopamine D4.2 radioligand binding (ligand: [3H] Spiperone); format: cell membranes, Membrane; settings: cho-k1; Not Active = under 50% inhibition at 10 µM
T1 sequence (P21917 whole entry): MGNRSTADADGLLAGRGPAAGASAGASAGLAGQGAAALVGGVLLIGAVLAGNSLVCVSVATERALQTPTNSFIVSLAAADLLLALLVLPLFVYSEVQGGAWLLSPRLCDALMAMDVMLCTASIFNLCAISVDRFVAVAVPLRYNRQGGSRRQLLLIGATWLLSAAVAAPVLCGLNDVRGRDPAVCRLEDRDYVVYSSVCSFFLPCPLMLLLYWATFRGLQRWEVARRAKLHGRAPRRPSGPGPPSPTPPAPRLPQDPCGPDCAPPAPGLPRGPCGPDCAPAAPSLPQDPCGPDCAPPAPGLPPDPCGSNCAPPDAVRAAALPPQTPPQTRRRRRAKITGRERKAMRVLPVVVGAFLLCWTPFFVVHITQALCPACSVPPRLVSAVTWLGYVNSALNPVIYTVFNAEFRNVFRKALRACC

Endothelin-1 receptor = molecular target: T2, Endothelin-1 receptor (Homo sapiens, UniProt P25101); format: cell membranes, Membrane; settings: cho-k1; also: in other assays of this panel Not Active means under 50% inhibition at 10 µM
T2 sequence (P25101 whole entry): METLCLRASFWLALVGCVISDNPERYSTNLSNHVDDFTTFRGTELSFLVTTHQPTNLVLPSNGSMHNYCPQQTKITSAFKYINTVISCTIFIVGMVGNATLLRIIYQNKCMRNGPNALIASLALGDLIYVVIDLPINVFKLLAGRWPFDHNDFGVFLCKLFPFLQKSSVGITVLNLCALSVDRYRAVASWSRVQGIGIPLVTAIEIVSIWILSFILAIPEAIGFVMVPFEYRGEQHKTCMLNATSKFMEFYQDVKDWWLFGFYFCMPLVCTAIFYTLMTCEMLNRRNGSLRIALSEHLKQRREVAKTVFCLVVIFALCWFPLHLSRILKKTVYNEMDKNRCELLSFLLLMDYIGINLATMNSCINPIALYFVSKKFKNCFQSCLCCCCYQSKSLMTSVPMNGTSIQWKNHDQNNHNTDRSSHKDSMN

[2] = DRUGMATRIX: GABAA, Muscimol, Central radioligand binding (ligand: [3H] Muscimol); format: cell membranes, Rattus norvegicus, Wistar, Brain, Membrane; settings: Not Active = under 50% inhibition at 10 µM
Histamine H2 receptor = Histamine H2 receptor (Homo sapiens, UniProt P25021); format: cell membranes, CHO-K1, Membrane; settings: for Ki: read-out: Ki; as to all read-outs here: in other assays of this panel Not Active means under 50% inhibition at 10 µM
Insulin receptor = Insulin receptor (Rattus norvegicus, UniProt P15127); format: cell membranes, Wistar, Liver, Membrane; also: in other assays of this panel Not Active means under 50% inhibition at 10 µM
[3] = DRUGMATRIX: Interleukin IL-1 radioligand binding (ligand: [125I] interleukin 1beta); format: cell membranes, Membrane; settings: nih3t3; Not Active = under 50% inhibition at 10 µM
Leukotriene C4 synthase = molecular target: T3, Leukotriene C4 synthase (Cavia porcellus, UniProt A6XA80); format: tissue-based, Lung;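 also: enzyme inhibition assay of leukotriene C4 synthase, using LTA4 as the substrate; in other assays of this panel Not Active means under 50% inhibition at 10 µM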
T3 sequence (A6XA80 whole entry): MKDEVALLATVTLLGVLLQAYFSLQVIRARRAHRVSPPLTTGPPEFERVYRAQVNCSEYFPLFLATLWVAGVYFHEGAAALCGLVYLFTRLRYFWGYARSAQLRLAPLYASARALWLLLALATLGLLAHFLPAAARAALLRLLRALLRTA

[4] = DRUGMATRIX: Phosphodiesterase PDE3 enzyme inhibition (substrate: [3H]cAMP + cAMP); format: tissue-based, Homo sapiens; settings: platelet; Not Active = under 50% inhibition at 10 µM
[5] = molecular target: Platelet-activating factor receptor (Homo sapiens, UniProt P25105); format: tissue-based; also: in other assays of this panel Not Active means under 50% inhibition at 10 µM
[6] = molecular target: Mitogen-activated protein kinase 3 (Homo sapiens, UniProt P27361); test: DRUGMATRIX: Protein Serine/Threonine Kinase, ERK1 enzyme inhibition (substrate: Myelin Basic Protein); parameters: species or system Escherichia coli; settings: Not Active = under 50% inhibition at 10 µM
Sequence of Mitogen-activated protein kinase 3 (P27361 whole entry): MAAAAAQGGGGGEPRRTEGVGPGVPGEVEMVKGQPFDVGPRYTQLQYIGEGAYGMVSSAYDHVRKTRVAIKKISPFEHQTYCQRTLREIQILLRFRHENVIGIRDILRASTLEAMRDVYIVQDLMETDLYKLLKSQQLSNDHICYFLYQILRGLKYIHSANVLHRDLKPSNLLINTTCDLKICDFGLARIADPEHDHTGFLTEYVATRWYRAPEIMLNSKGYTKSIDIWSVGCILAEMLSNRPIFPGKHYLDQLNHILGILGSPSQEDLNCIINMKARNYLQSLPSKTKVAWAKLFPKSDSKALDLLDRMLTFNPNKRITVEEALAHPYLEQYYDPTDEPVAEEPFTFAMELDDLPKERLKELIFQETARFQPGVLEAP

Sequence of Insulin receptor (P15127 27-759 limits assumed): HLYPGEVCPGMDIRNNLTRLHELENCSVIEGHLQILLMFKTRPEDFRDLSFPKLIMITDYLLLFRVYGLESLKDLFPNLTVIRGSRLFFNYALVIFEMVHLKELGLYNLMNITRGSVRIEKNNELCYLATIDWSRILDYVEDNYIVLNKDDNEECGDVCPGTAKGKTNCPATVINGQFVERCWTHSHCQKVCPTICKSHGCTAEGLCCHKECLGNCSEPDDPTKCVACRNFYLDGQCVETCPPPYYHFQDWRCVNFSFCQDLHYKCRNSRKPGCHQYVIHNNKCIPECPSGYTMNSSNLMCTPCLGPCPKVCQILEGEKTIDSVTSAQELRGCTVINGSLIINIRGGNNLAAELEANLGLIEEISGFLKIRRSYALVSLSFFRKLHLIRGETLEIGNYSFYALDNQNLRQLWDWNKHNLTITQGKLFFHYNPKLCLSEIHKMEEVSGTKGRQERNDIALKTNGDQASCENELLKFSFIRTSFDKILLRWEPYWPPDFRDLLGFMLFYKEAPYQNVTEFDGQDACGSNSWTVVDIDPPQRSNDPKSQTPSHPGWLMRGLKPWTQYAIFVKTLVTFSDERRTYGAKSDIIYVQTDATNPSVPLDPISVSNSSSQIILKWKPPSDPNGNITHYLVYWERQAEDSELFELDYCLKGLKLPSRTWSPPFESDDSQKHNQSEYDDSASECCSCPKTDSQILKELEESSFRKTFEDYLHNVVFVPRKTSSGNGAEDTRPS
Sequence of Insulin receptor (P15127 764-1383 limits assumed): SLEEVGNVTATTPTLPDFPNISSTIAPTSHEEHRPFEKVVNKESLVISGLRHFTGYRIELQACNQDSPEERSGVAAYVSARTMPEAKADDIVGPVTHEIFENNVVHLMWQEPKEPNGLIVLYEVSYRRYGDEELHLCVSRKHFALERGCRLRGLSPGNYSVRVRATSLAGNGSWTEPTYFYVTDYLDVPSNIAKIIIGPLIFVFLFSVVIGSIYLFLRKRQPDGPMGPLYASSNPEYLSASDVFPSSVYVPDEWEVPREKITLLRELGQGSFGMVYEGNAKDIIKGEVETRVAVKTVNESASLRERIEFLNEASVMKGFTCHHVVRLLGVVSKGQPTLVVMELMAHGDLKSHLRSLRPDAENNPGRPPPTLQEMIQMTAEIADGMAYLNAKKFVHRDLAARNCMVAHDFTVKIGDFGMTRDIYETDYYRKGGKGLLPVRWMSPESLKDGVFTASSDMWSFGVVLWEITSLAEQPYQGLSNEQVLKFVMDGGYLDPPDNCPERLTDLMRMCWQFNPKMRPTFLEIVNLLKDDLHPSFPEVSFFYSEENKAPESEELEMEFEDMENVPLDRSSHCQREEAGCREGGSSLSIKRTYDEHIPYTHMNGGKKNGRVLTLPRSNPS
Sequence of Sigma non-opioid intracellular receptor 1 (Q99720 whole entry): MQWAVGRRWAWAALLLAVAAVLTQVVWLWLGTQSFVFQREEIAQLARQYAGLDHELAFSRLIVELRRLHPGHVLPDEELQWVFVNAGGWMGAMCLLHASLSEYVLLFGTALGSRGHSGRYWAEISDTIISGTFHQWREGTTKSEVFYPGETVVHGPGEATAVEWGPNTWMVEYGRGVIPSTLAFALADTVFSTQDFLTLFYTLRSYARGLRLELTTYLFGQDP
Sequence of Platelet-activating factor receptor (P25105 whole entry): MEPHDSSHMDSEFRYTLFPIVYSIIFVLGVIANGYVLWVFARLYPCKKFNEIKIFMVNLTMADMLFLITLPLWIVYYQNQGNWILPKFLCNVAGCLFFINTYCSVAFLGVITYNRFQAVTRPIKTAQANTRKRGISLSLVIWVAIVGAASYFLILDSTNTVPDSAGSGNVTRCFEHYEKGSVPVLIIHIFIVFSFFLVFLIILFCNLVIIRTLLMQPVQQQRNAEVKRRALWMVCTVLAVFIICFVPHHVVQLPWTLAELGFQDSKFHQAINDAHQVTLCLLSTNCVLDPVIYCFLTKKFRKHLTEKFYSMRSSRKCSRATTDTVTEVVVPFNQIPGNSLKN
Sequence of Histamine H2 receptor (P25021 whole entry): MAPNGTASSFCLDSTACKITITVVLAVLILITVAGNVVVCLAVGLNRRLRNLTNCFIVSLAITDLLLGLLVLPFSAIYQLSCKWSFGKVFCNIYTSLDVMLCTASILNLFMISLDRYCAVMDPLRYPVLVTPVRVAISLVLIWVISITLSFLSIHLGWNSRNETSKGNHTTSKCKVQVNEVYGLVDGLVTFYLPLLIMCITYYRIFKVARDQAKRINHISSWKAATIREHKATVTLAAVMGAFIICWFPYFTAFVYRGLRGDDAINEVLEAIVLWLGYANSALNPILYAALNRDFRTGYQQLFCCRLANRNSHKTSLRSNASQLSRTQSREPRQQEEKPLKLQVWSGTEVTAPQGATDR

Compound	IC50 ([1]; jurkat)	IC50 (D(4) dopamine receptor)	IC50 (Endothelin-1 receptor)	IC50 [2]	Ki [2]	IC50 (Histamine H2 receptor; cho-k1)	IC50 (Insulin receptor)	IC50 [3]	Ki [3]	IC50 (Leukotriene C4 synthase)	IC50 [4]	Ki [4]	IC50 [5]	IC50 [6]	IC50 (Histamine H2 receptor; read-out: IC50) [µM]	Ki (Histamine H2 receptor) [µM]	Ki (Endothelin-1 receptor)	IC50 ([1]; read-out: IC50) [µM]	Ki ([1]; read-out: Ki) [µM]
Cc1cc(C)nc(NS(=O)(=O)c2ccc(N)cc2)n1 [SULFAMETHAZINE]	Not Active	Not Active	Not Active	Not Active	Not Active	Not Active	Not Active	Not Active	Not Active	Not Active	Not Active	Not Active	Not Active	Not Active					
CN1CCC(=C2c3ccccc3C=Cc3ccccc32)CC1 [CYPROHEPTADINE]	Not Active	Not Active	Not Active				Not Active			Not Active			Not Active	Not Active	0.198	0.195			
CNC(=C[N+](=O)[O-])NCCSCc1ccc(CN(C)C)o1 [RANITIDINE]	Not Active	Not Active	Not Active	Not Active	Not Active	Not Active	Not Active	Not Active	Not Active	Not Active	Not Active	Not Active	Not Active	Not Active					
CC(=O)N1CCN(c2ccc(OCC3COC(Cn4ccnc4)(c4ccc(Cl)cc4Cl)O3)cc2)CC1 (stereo not drawn) [KETOCONAZOLE]	Not Active	Not Active	Not Active	Not Active	Not Active		Not Active	Not Active	Not Active	Not Active	Not Active	Not Active	Not Active	Not Active	21.9	21.5			
CC(C)CC(N(C)C)C1(c2ccc(Cl)cc2)CCC1 (stereo not drawn) [SIBUTRAMINE]	Not Active	Not Active	Not Active	Not Active	Not Active	Not Active	Not Active	Not Active	Not Active	Not Active	Not Active	Not Active	Not Active	Not Active					
Cc1onc(-c2ccccc2)c1-c1ccc(S(N)(=O)=O)cc1 [VALDECOXIB]	Not Active	Not Active		Not Active	Not Active	Not Active	Not Active	Not Active	Not Active	Not Active	Not Active	Not Active	Not Active	Not Active			Not Active		
CC/C(=C(/CC)c1ccc(O)cc1)c1ccc(O)cc1 [DIETHYLSTILBESTROL]	Not Active	Not Active	Not Active			Not Active	Not Active			Not Active			Not Active	Not Active					
C[C@]1(Cn2ccnn2)[C@H](C(=O)O)N2C(=O)C[C@H]2S1(=O)=O [TAZOBACTAM]	Not Active	Not Active	Not Active	Not Active	Not Active	Not Active	Not Active	Not Active	Not Active	Not Active	Not Active	Not Active	Not Active	Not Active					
COCCOC(=O)C1=C(C)NC(C)=C(C(=O)OC(C)C)C1c1cccc([N+](=O)[O-])c1 (stereo not drawn) [NIMODIPINE]	Not Active	Not Active	Not Active	Not Active	Not Active	Not Active	Not Active	Not Active	Not Active	Not Active	Not Active	Not Active	Not Active	Not Active					
Cc1cccc(Nc2ccncc2S(=O)(=O)NC(=O)NC(C)C)c1 [TORSEMIDE]	Not Active	Not Active	Not Active	Not Active	Not Active	Not Active	Not Active	Not Active	Not Active	Not Active	Not Active	Not Active	Not Active	Not Active					
[Cl-].[Cl-].[Zn+2] [ZINC CHLORIDE]	Not Active	Not Active	Not Active	Not Active	Not Active	Not Active	Not Active	Not Active	Not Active	Not Active	Not Active	Not Active	Not Active	Not Active					
C=CCN1CC[C@]23c4c5ccc(O)c4O[C@H]2C(=O)CC[C@@]3(O)[C@H]1C5 [NALOXONE]	Not Active	Not Active	Not Active			Not Active	Not Active			Not Active			Not Active	Not Active					
CN1C(C(=O)Nc2ccccn2)=C(O)c2sccc2S1(=O)=O [TENOXICAM]	Not Active	Not Active	Not Active	Not Active	Not Active	Not Active	Not Active	Not Active	Not Active	Not Active	Not Active	Not Active	Not Active	Not Active					
COc1cc(NS(=O)(=O)c2ccc(N)cc2)nc(OC)n1 [SULFADIMETHOXINE]	Not Active	Not Active	Not Active	Not Active	Not Active	Not Active	Not Active	Not Active	Not Active	Not Active	Not Active	Not Active	Not Active	Not Active					
CC(C)NCC(O)COc1cccc2ccccc12 (stereo not drawn) [PROPRANOLOL]		Not Active	Not Active			Not Active	Not Active			Not Active			Not Active	Not Active				2.87	1.21
Clc1ccc2c(c1)C(N1CCNCC1)=Nc1ccccc1O2 [AMOXAPINE]	Not Active	Not Active	Not Active			Not Active	Not Active			Not Active			Not Active	Not Active					
O=C(c1ccc(OCCN2CCCCC2)cc1)c1c(-c2ccc(O)cc2)sc2cc(O)ccc12 [RALOXIFENE]		Not Active	Not Active	Not Active	Not Active	Not Active	Not Active	Not Active	Not Active	Not Active	Not Active	Not Active	Not Active	Not Active					
COc1cc2c(c(OC)c1OC)-c1ccc(OC)c(=O)cc1[C@@H](NC(C)=O)CC2 [COLCHICINE]	Not Active	Not Active	Not Active			Not Active	Not Active			Not Active			Not Active	Not Active					
